Data as given in PubChem BioAssay AID1159563 (GlaxoSmithKline (GSK), 2015).
Calls of active or inactive are those of the source. The rule behind the calls is not given here.

Test system: HepG2 cytotoxicity
Assay: human hepatoma cell viability loss – cytotoxicity control (AID 1159563)

SMILES	IC50
Cc1nc(N2CC(C)OC(C)C2)sc1C(=O)Nc1ccc2c(c1)OCO2 (stereo not given)	> 100 µM (inactive)
N#Cc1cccc(Cc2cc(Nc3cc(C4CC4)[nH]n3)nc(N3CC[C@H]3C(N)=O)n2)c1	> 100 µM (inactive)
CCC(CC)C(=O)Nc1cccc(C(=O)Nc2nnc(C3CCCCC3)s2)c1	> 100 µM (inactive)
COc1ccccc1CNc1cc(C2CC2)nc(-c2nccn2C)n1	20 µM
CCCCc1cc(Nc2cc(C3CCC3)[nH]n2)nc(N2CCC2C(N)=O)n1 (stereo not given)	> 100 µM (inactive)
O=C(Nc1nc(-c2ccccn2)cs1)N1C[C@H]2C[C@@]2(c2ccccc2)C1	25 µM
Cc1ccc2sc(NC(=O)Cn3cnc([N+](=O)[O-])n3)nc2c1	> 100 µM (inactive)
Cc1cc(Nc2cc(C3CC3)[nH]n2)nc(N2CCC[C@H]2C(N)=O)n1	> 100 µM (inactive)
CCCCN(C(=O)c1ccc(NC(=O)C(C)C)cc1)c1ccccc1	> 100 µM (inactive)
Cc1cccnc1NC(=O)c1cccc(OCc2c(C)noc2C)c1	> 100 µM (inactive)
O=C(NCC(c1cccs1)N1CCOCC1)c1ccc([N+](=O)[O-])o1 (stereo not given)	20 µM
COc1ccc(NS(=O)(=O)c2cc(NC(=O)Cc3ccc(C)cc3)ccc2N2CCOCC2)cc1	> 100 µM (inactive)
O=C(NCCc1ccccn1)C(c1cn[nH]c1)N1CCN(c2ccc(Cl)c(Cl)c2)CC1 (stereo not given)	> 100 µM (inactive)
Cc1ccc(NC(=O)C(C)n2nc([N+](=O)[O-])c(Br)c2C)cc1Cl (stereo not given)	79 µM
NCC(Cc1ccccc1)NC(=O)c1cnc(-c2c[nH]c3ncccc23)s1 (stereo not given)	79 µM
CNc1nc(C)nc(N2CCc3cc(C(=O)NCc4ccc(-c5ccn[nH]5)cc4Cl)ccc32)n1	> 100 µM (inactive)
CCN(CC)c1nc(Nc2ccncc2)nc2ccccc12	50 µM
O=C(NCCc1csc(-c2ccc(F)cc2)n1)c1ccco1	> 100 µM (inactive)
O=C(c1ccc(O)c(Cl)c1)N1CCN(c2cnccn2)CC1	> 100 µM (inactive)
Clc1cc(Br)ccc1OCCCCn1ccnc1	50 µM
COc1cc(Nc2nccc(Nc3onc(C)c3C)n2)cc(S(=O)(=O)C2CCOCC2)c1	32 µM
CS(=O)(=O)c1cccc(-c2cnc(N)c3c(-c4ccc(CO)cc4)csc23)c1	> 100 µM (inactive)
O=C(NCc1nnc2n1CCCCC2)c1ccc(-c2ccc(F)cc2)o1	> 100 µM (inactive)
Cc1sc(C)c(C(F)(F)F)c1CNCCCNc1cc(=O)c2ccccc2[nH]1	50 µM
O=C(Nc1ccc(Br)c(Cl)c1)Nc1ccc2c(c1)OCO2	> 100 µM (inactive)

SMILES	IC50
Oc1c(-c2n[nH]c(CCc3ccccc3)n2)ncc2cccnc12	40 µM
CS(=O)(=O)N1CCC(Nc2ncc(Br)c(Nc3cccc(F)c3C(N)=O)n2)CC1	> 100 µM (inactive)
Oc1cccnc1-c1n[nH]c(Cc2ccccc2)n1	79 µM
Cc1cc(C)n(-c2nc(NC(C)C)nc(NC(C)(C)C)n2)n1	> 100 µM (inactive)
CCn1nccc1CN(C)C(=O)C=Cc1ccc(Cl)cc1	> 100 µM (inactive)
NS(=O)(=O)c1ccc(CNC(=O)c2ccc([N+](=O)[O-])s2)cc1	16 µM
COc1ccc2ncc(=O)n(CCN3CCC(NCc4ccc(-c5cccs5)cc4)CC3)c2n1	13 µM
Cc1nn(C2CCS(=O)(=O)C2)c(C)c1CN(C)C(=O)C=Cc1sc2ccccc2c1Cl (stereo not given)	> 100 µM (inactive)
O=C(CC1(O)C(=O)N(Cc2cccs2)c2ccc(Br)cc21)c1cccnc1 (stereo not given)	63 µM
O=C(CCc1ccc(-c2ccccc2)o1)N1CCN(c2ccc(O)cc2)CC1	> 100 µM (inactive)
COc1ccc(Cc2nc(-c3ncc4cccnc4c3O)n[nH]2)cc1OC	50 µM
COc1cccc(S(=O)(=O)Nc2ccc3c(c2)CC(N2CCC(NC(=O)C4CC4)CC2)C3)c1 (stereo not given)	> 100 µM (inactive)
O=[N+]([O-])c1ccc(C2=CC(c3ccccc3)=NCCN2)cc1	50 µM
CCN(CC)S(=O)(=O)c1ccc(OC)c(NC(=O)c2ccc([N+](=O)[O-])s2)c1	> 100 µM (inactive)
COc1ccc(NC(=O)c2ccc(NC(=O)CN(c3ccccc3C)S(C)(=O)=O)cc2)cc1	40 µM
CCOc1ccc(CN(C)Cc2nc(N)nc(Nc3ccc(C)cc3)n2)cc1	32 µM
Cc1[nH]n2c(=O)c3c(nc2c1-c1ccc(F)cc1)CCCC3	> 100 µM (inactive)
Cc1cc(Nc2cc(C3CC3)[nH]n2)nc(N2CCCC2)n1	32 µM
CC(C)CC(=O)NC(c1cccs1)c1ccc2cccnc2c1O (stereo not given)	> 100 µM (inactive)
COc1ccc(Oc2ccc(C(C)N(C)c3ncc4c(N)nc(N)nc4n3)cc2)cc1 (stereo not given)	40 µM
Cc1cc(C)c(C#N)c(SCC(=O)c2ccc3c(c2)OCO3)n1	> 100 µM (inactive)
CCOc1cnn(C)c(=O)c1Nc1ccc(C(=O)NCc2ccc(F)cc2)cc1	> 100 µM (inactive)
Cn1c(CC(=O)NNC(=O)c2ccc3ccccc3n2)nc2ccccc21	> 100 µM (inactive)
O=C(Cc1ccccc1)Nc1ccccc1C(=O)Nc1nccs1	> 100 µM (inactive)
NC(=O)c1ccccc1Nc1nc(NC2CCCCC2)nc2[nH]ccc12	20 µM

SMILES	IC50
Cc1ccccc1NS(=O)(=O)c1ccc2[nH]cc(C(=O)NC3CCCC3)c(=O)c2c1	25 µM
O=C(NCc1ccc(Cl)cc1)C1CN(C(=O)c2ccc(F)cc2)CCS1 (stereo not given)	> 100 µM (inactive)
CCc1cccc(CC)c1-n1c(SCC(=O)N2CC(=O)Nc3ccccc32)nnc1-c1cccnc1	> 100 µM (inactive)
CNc1nc(C)nc(N2CCc3cc(C(=O)NCc4ccc(-c5nccn5C)cc4Cl)ccc32)n1	32 µM
CN(Cc1cccnc1)Cc1ccc(N2CCN(C(=O)C3(c4ccc(Cl)cc4)CC3)CC2)nc1	> 100 µM (inactive)
COc1ccc(Nc2nc(-c3ccccn3)cs2)c(OC)c1	> 100 µM (inactive)
CCOc1ccc(OCC(=O)N2c3ccccc3CC2C(=O)NC)cc1 (stereo not given)	> 100 µM (inactive)
Cn1cncc1CN1CCC2(CC1)COC(Cc1ccccc1)C2 (stereo not given)	> 100 µM (inactive)
CC(C)Oc1ccc(C(=O)Nc2ccc(N3CCOCC3)c(Cl)c2)cc1	32 µM
CCN(CC)c1ncc(C(=O)c2ccc([N+](=O)[O-])o2)s1	16 µM
Cc1ccc2nc(N(Cc3cccnc3)C(=O)CCc3ccccc3)sc2c1	> 100 µM (inactive)
Cc1ccc(-c2csc(NC(=O)C=Cc3ccc(S(=O)(=O)N4CCOCC4)cc3)n2)o1	> 100 µM (inactive)
O=C(C1CCCCC1)N1CCN(c2nnc(-c3ccccc3)c3ccccc23)CC1	> 100 µM (inactive)
O=C(Nc1ccccc1C(=O)Nc1ccccn1)c1ccco1	> 100 µM (inactive)
O=C(NCCc1cccnc1)c1csc(-c2ccccc2)n1	> 100 µM (inactive)
OC[C@@H](Nc1nccc(-c2c(-c3ccc(F)cc3)ncn2C2CCNCC2)n1)c1ccccc1	100 µM
COc1cnc2ccc(=O)n(CCN3CCC(NC/C=C/c4cc(F)ccc4F)CC3)c2c1	63 µM
Cc1cc(C)cc(NS(=O)(=O)c2cc(-c3cc(C)[nH]n3)ccc2C)c1	63 µM
Cc1cc2nc(N3CC[C@H]3C(N)=O)nc(Nc3cc(C4CC4)[nH]n3)c2s1	> 100 µM (inactive)
CN(Cc1ccc(C(N)=O)cc1)C(c1ccc(F)cc1)c1cccnc1 (stereo not given)	> 100 µM (inactive)
CCN(Cc1cccs1)C(=O)CSc1nnc(-c2ccc3c(c2)OCO3)o1	> 100 µM (inactive)
Cc1ccc(S(=O)(=O)Nc2ccc(CN3CCN(C(=O)c4cccc(C)c4)CC3)cc2)cc1	> 100 µM (inactive)
Cc1ccc(Nc2nc(N)nc(CNC(c3nc4ccccc4[nH]3)C(C)C)n2)cc1 (stereo not given)	> 100 µM (inactive)
O=C(Nc1ccc(-c2nc3ccccc3c(=O)[nH]2)cc1)c1cccs1	> 100 µM (inactive)
O=C1CSC(c2cccnc2)N1c1ccc(Cl)cc1Cl (stereo not given)	> 100 µM (inactive)

SMILES	IC50
O=C(NCc1nnc2n1CCCCC2)c1csc(-c2ccccc2)n1	> 100 µM (inactive)
COc1ccc(Nc2nc(NC3CCC(O)CC3)ncc2Br)c(C(N)=O)c1 (stereo not given)	> 100 µM (inactive)
CCOc1ccc(N(C)S(=O)(=O)c2ccc3[nH]cc(C(=O)NC4CCCC4)c(=O)c3c2)cc1	50 µM
CCc1ccc2nc(NC(=O)c3cc(N4CCOCC4)ccn3)sc2c1	> 100 µM (inactive)
CC(C)(C)CC(=O)NCCc1csc(-c2ccc(F)cc2)n1	> 100 µM (inactive)
Cc1ccc2onc(Nc3ccnc(Nc4cccc(S(C)(=O)=O)c4)n3)c2c1	50 µM
COCc1cc(Nc2ccc(Cl)cc2)nc(-c2ccccn2)n1	13 µM
CC(=O)NC1(c2ccccc2)CCN(CC(=O)Nc2ccccc2-c2ccccc2)CC1	> 100 µM (inactive)
CC(C)(C)C(Cn1ccnc1)NC(=O)c1ccc2nc(C3CC3)oc2c1 (stereo not given)	> 100 µM (inactive)
Cc1cnc(Nc2cc(Cc3ccccc3)nc(NC3CCC(O)CC3)n2)s1 (stereo not given)	25 µM
Cc1c(CNC(=O)c2ccc(Cn3cc(Cl)c([N+](=O)[O-])n3)cc2)cnn1C	> 100 µM (inactive)
Cc1cc(C)n(-c2nc(NC(C)(C)C)nc(N3CCOCC3)n2)n1	100 µM
O=C(NCc1ccc(-n2cccc2)cc1)c1nc(Cn2ccc([N+](=O)[O-])n2)no1	> 100 µM (inactive)
CCCN1CCN(Cc2ccc(S(=O)(=O)Nc3cccc(C)c3)cc2)CC1	> 100 µM (inactive)
CCOC(=O)c1cn[nH]c1S(=O)(=O)N1CCC1c1ccccc1 (stereo not given)	> 100 µM (inactive)
Cc1cc2cncn2c(C2CCCCN2C(=O)c2cccs2)n1 (stereo not given)	> 100 µM (inactive)
CC(C)n1c(-c2nonc2N)nc2cccc(OCCN3CCCC3)c21	> 100 µM (inactive)
CN(Cc1cc2ccccc2s1)c1ncc2c(N)nc(N)nc2n1	40 µM
O=[N+]([O-])c1ccc(-c2nnn(-c3ccc(Cl)cc3)n2)o1	> 100 µM (inactive)
Cc1cccc(N2CCCN(Cc3c[nH]c4ccccc34)CC2)n1	13 µM
Cc1[nH]n2c(=O)c3c(nc2c1-c1ccc(Br)cc1)CCCC3	> 100 µM (inactive)
O=C(NCC(c1cccnc1)N1CCc2ccccc2C1)C(=O)Nc1cccc(Cl)c1 (stereo not given)	> 100 µM (inactive)
O=C(c1ccc(OCCCc2cnc[nH]2)cc1)C1CC1	> 100 µM (inactive)
c1ccc(CCNCc2cncc3nc(-c4cnccn4)n(C4CCCCC4)c23)cc1	> 100 µM (inactive)
CNC(=O)C1Cc2ccccc2N1C(=O)COc1cccc(OC)c1 (stereo not given)	> 100 µM (inactive)
